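Where inhibition never reached the appropriate level, the endpoint shown equals the highest concentration tested. Otherwise, values were interpolated linearly from a five-concentration, 48-hour dose response in 96-well plates. GI50: concentration for 50% inhibition of growth.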 Calls of active or inactive are those of the source. Cut-off read from the data, not from the text of the source: active = GI50 up to about 1.1 µM and inactive = higher.
Legend:
Assay in all cases: NCI tumour cell line growth inhibition, 48 h
[1] = system: XF498
[2] = system: DMS-114
[3] = system: RXF 631
[4] = system: DMS-273
[5] = system: BT-549
[6] = system: DLD-1
[7] = system: SNB-78
[8] = system: HOP-18
[9] = system: LXFL 529

Measured: GI50

Cn1c2c(c3ccccc31)CCN(CCCCN1CCN(c3ccccc3)CC1)C2=O
inactive: [1] 14.1 µM | [2] 22.1 µM | [3] 9.66 µM | [4] 31.4 µM | [5] 6.58 µM | [6] 19.3 µM | [7] > 100 µM | [8] > 31.6 µM | [9] 33.9 µM

O=C(O)COc1ccc(C(=O)/C(SS/C(C(=O)c2ccc(OCC(=O)O)c(Cl)c2Cl)=C2\C=C(c3ccccc3Cl)SS2)=C2/C=C(c3ccccc3Cl)SS2)c(Cl)c1Cl
inactive: [1] 13.6 µM | [2] 9.73 µM | [3] 25.5 µM | [4] 25.6 µM | [6] 25 µM | [7] 16.9 µM | [8] 24.1 µM | [9] 5.5 µM

CCCCC(C)/C=C/C(O)=C1\C(=O)O/C(=C\C(=O)O)C1=O (stereo not drawn)
inactive: [1] > 100 µM | [2] > 100 µM | [3] > 100 µM | [4] > 100 µM | [7] > 100 µM | [8] > 100 µM | [9] > 100 µM

O=C(NCCCCCCCCNC(=O)c1cccc2ccccc12)c1cccc2ccccc12
inactive: [1] 4.44 µM | [2] 42.6 µM | [3] 13.9 µM | [4] 52.8 µM | [5] 39.6 µM | [6] > 100 µM | [7] 13.4 µM | [8] 21 µM | [9] > 56.5 µM

Source: ChEMBL document CHEMBL1201862, “PubChem BioAssay data set” (2004)
